{
  "source": "patent US20070027150A1",
  "about": "(priority 2005, published 2007)",
  "data": [
    {"target": "His-tagged N-terminal ATP binding domain (amino acid residues 9-236) of HSP90α (Homo sapiens, UniProt P07900)", "test": "HSP90 inhibitor binding potency: TRF competition binding assay", "conditions": "Table I; read-out: Hsp90 IC50 Range", "summary_of_the_method": "(§1)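 His-tagged HSP90α N-domain (residues 9-236) incubated 2 h at room temperature with biotinylated radicicol and increasing compound in 50 mM HEPES, 6 mM MgCl2, 20 mM KCl, 0.1% BSA. Bound tracer captured on streptavidin plates, detected with europium anti-His antibody by time-resolved fluorescence; IC50 derived.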", "units": {"IC50": "nM"}, "values": [
      {"smiles": "Cc1nc(N)nc2c1C(=O)CC(c1ccccc1-c1nccs1)C2", "note": "(stereo not shown) [Compound 35, 2-amino-4-methyl-7-[2-(1,3-thiazol-2-yl)phenyl]-7,8-dihydroquinazolin-5(6H)-one]", "IC50": "< 1000"},
      {"smiles": "Cc1nc(N)nc2c1C(=O)CC(c1c(O)cccc1C1=CCCCC1)C2", "note": "(stereo not shown) [Compound 62, 2-amino-7-(2-cyclohex-1-enyl-6-hydroxy-phenyl)-4-methyl-7,8-dihydro-6H-quinazolin-5-one]", "IC50": "< 1000"},
      {"smiles": "Cc1nc(N)nc2c1C(=O)CC(c1cccc(-c3ccncc3)c1)C2", "note": "(stereo not shown) [Compound 30, 2-amino-4-methyl-7-(3-pyridin-4-ylphenyl)-7,8-dihydroquinazolin-5(6H)-one]", "IC50": "> 10000"},
      {"smiles": "Cc1nc(N)nc2c1C(=O)CC(c1ccccc1Oc1ccc(F)cc1)C2", "note": "(stereo not shown) [Compound 139, 2-amino-7-[2-(4-fluorophenoxy)phenyl]-4-methyl-7,8-dihydroquinazolin-5(6H)-one]", "IC50": "1000 to 10000"},
      {"smiles": "Cc1nc(N)nc2c1C(=O)CC(c1nn(C)cc1Br)C2", "note": "(stereo not shown) [Compound 11, 2-amino-7-(4-bromo-1-methyl-1H-pyrazol-3-yl)-4-methyl-7,8-dihydro-6H-quinazolin-5-one]", "IC50": "> 10000"},
      {"smiles": "Cc1nc(N)nc2c1C(=O)CC(c1ccccc1Oc1ccccc1)C2", "note": "(stereo not shown) [Compound 133, 2-amino-4-methyl-7-(2-phenoxyphenyl)-7,8-dihydroquinazolin-5(6H)-one]", "IC50": "< 1000"},
      {"smiles": "Cc1nc(N)nc2c1C(=O)CC(c1ccccc1-c1cccc(NS(C)(=O)=O)c1)C2", "note": "(stereo not shown) [Compound 114, N-[2′-(2-amino-4-methyl-5-oxo-5,6,7,8-tetrahydroquinazolin-7-yl)-1,1′-biphenyl-3-yl]methanesulfonamide]", "IC50": "1000 to 10000"},
      {"smiles": "Cc1nc(N)nc2c1C(=O)CC(c1cccnc1-c1cnccn1)C2", "note": "(stereo not shown) [Compound 34, 2-amino-4-methyl-7-(2-pyrazin-2-ylpyridin-3-yl)-7,8-dihydroquinazolin-5(6H)-one]", "IC50": "1000 to 10000"},
      {"smiles": "Cc1nc(N)nc2c1C(=O)CC(c1ccccc1-c1cncnc1)C2", "note": "(stereo not shown) [Compound 42, 2-amino-4-methyl-7-(2-pyrimidin-5-ylphenyl)-7,8-dihydroquinazolin-5(6H)-one]", "IC50": "< 1000"},
      {"smiles": "Cc1nc(N)nc2c1C(=O)CC(c1ccccc1OC1CCCCC1)C2", "note": "(stereo not shown) [Compound 17, 2-amino-7-[2-(cyclohexyloxy)phenyl]-4-methyl-7,8-dihydroquinazolin-5(6H)-one]", "IC50": "< 1000"},
      {"smiles": "Cc1nc(N)nc2c1C(=O)CC(c1ccccc1Nc1ccccc1)C2", "note": "(stereo not shown) [Compound 164, 2-amino-4-methyl-7-(2-phenylamino-phenyl)-7,8-dihydro-6H-quinazolin-5-one]", "IC50": "< 1000"},
      {"smiles": "Cc1nc(N)nc2c1C(=O)CC(c1ccccc1-c1cnn(C)c1)C2", "note": "(stereo not shown) [Compound 43, 2-amino-4-methyl-7-[2-(1-methyl-1H-pyrazol-4-yl)phenyl]-7,8-dihydroquinazolin-5(6H)-one]", "IC50": "1000 to 10000"},
      {"smiles": "Cc1nc(N)nc2c1C(=O)CC(c1ccccc1-c1ccccn1)C2", "note": "(stereo not shown) [Compound 25, 2-amino-4-methyl-7-(2-pyridin-2-ylphenyl)-7,8-dihydroquinazolin-5(6H)-one]", "IC50": "< 1000"},
      {"smiles": "Cc1nc(N)nc2c1C(=O)CC(c1cccc(Br)c1)C2", "note": "(stereo not shown) [Compound 7, 2-amino-7-(3-bromophenyl)-4-methyl-7,8-dihydroquinazolin-5(6H)-one]", "IC50": "1000 to 10000"},
      {"smiles": "Cc1nc(N)nc2c1C(=O)CC(c1c(OCCN)cccc1-c1cccnc1F)C2", "note": "(stereo not shown) [Compound 153, 2-amino-7-[2-(2-amino-ethoxy)-6-(2-fluoro-pyridin-3-yl)-phenyl]-4-methyl-7,8-dihydro-6H-quinazolin-5-one]", "IC50": "< 1000"},
      {"smiles": "Cc1ncccc1-c1ccccc1C1CC(=O)c2c(C)nc(N)nc2C1", "note": "(stereo not shown) [Compound 116, 2-amino-4-methyl-7-[2-(2-methylpyridin-3-yl)phenyl]-7,8-dihydroquinazolin-5(6H)-one]", "IC50": "< 1000"},
      {"smiles": "Cc1nc(N)nc2c1C(=O)CC(c1ccccc1-c1ccccc1F)C2", "note": "(stereo not shown) [Compound 51, 2-amino-7-(2′-fluoro-1,1′-biphenyl-2-yl)-4-methyl-7,8-dihydroquinazolin-5(6H)-one]", "IC50": "< 1000"},
      {"smiles": "Cc1nc(N)nc2c1C(=O)CC(c1ccccc1-c1cn[nH]c1)C2", "note": "(stereo not shown) [Compound 39, 2-amino-4-methyl-7-[2-(1H-pyrazol-4-yl)phenyl]-7,8-dihydroquinazolin-5(6H)-one]", "IC50": "1000 to 10000"},
      {"smiles": "COc1ccc(-c2ccccc2C2CC(=O)c3c(C)nc(N)nc3C2)cn1", "note": "(stereo not shown) [Compound 74, 2-amino-7-[2-(6-methoxypyridin-3-yl)phenyl]-4-methyl-7,8-dihydroquinazolin-5(6H)-one]", "IC50": "1000 to 10000"}
    ]},
    {"target": "His-tagged N-terminal ATP binding domain (amino acid residues 9-236) of HSP90α (Homo sapiens, UniProt P07900)", "test": "HSP90 inhibitor binding potency: TRF competition binding assay", "conditions": "Table II; read-out: Hsp90 IC50 Range", "summary_of_the_method": "as §1", "units": {"IC50": "nM"}, "values": [
      {"smiles": "COc1ccc(-c2cccc(OC)n2)c(C2CC(=O)c3c(C)nc(N)nc3C2)c1", "note": "(stereo not shown) [Compound 252, 2-amino-7-[5-methoxy-2-(6-methoxy-pyridin-2-yl)-phenyl]-4-methyl-7,8-dihydro-6H-quinazolin-5-one]", "IC50": "< 1000"},
      {"smiles": "CCc1nc(N)nc2c1C(=O)CC(c1ccc(F)cc1-c1cccc(OC)c1F)C2", "note": "(stereo not shown) [Compound 320, 2-amino-7-(5,2′-difluoro-3′-methoxy-biphenyl-2-yl)-4-ethyl-7,8-dihydro-6H-quinazolin-5-one]", "IC50": "> 10000"},
      {"smiles": "COc1cccc(-c2cc(F)ccc2[C@H]2CC(=O)c3c(C)nc(N)nc3C2)n1", "note": "[Compound 260, (R)-2-amino-7-[4-fluoro-2-(6-methoxy-pyridin-2-yl)-phenyl]-4-methyl-7,8-dihydro-6H-quinazolin-5-one]", "IC50": "1000 to 10000"},
      {"smiles": "COc1cncc(-c2cc(F)ccc2C2CC(=O)c3c(C)nc(N)nc3C2)n1", "note": "(stereo not shown) [Compound 221, 2-amino-7-[4-fluoro-2-(6-methoxy-pyrazin-2-yl)-phenyl]-4-methyl-7,8-dihydro-6H-quinazolin-5-one]", "IC50": "< 1000"},
      {"smiles": "COc1cccc(-n2ccnc2[C@H]2CC(=O)c3c(C)nc(N)nc3C2)n1", "note": "[Compound 203, (R)-2-amino-7-[1-(6-methoxy-pyridin-2-yl)-1H-imidazol-2-yl]-4-methyl-7,8-dihydro-6H-quinazolin-5-one]", "IC50": "1000 to 10000"},
      {"smiles": "COc1cc(Cl)c(C)cc1-n1ccnc1C1CC(=O)c2c(C)nc(N)nc2C1", "note": "(stereo not shown) [Compound 330, 2-amino-7-[1-(4-chloro-2-methoxy-5-methyl-phenyl)-1H-imidazol-2-yl]-4-methyl-7,8-dihydro-6H-quinazolin-5-one]", "IC50": "1000 to 10000"},
      {"smiles": "Cc1nc(N)nc2c1C(=O)CC(c1ccc(F)cc1-c1cccc(Cl)n1)C2", "note": "(stereo not shown) [Compound 223, 2-amino-7-[2-(6-chloro-pyridin-2-yl)-4-fluoro-phenyl]-4-methyl-7,8-dihydro-6H-quinazolin-5-one]", "IC50": "< 1000"},
      {"smiles": "COc1nc(-c2cc(F)ccc2[C@H]2CC(=O)c3c(C)nc(N)nc3C2)ncc1F", "note": "[Compound 229, (R)-2-amino-7-[4-fluoro-2-(5-fluoro-4-methoxy-pyrimidin-2-yl)-phenyl]-4-methyl-7,8-dihydro-6H-quinazolin-5-one]", "IC50": "1000 to 10000"},
      {"smiles": "Cc1nc(N)nc2c1C(=O)CC(c1ccc(F)cc1OCc1ccccc1)C2", "note": "(stereo not shown) [Compound 265, 2-amino-7-(2-benzyloxy-4-fluoro-phenyl)-4-methyl-7,8-dihydro-6H-quinazolin-5-one]", "IC50": "1000 to 10000"},
      {"smiles": "CCc1nc(N)nc2c1C(=O)CC(c1ccc(F)cc1-c1cncc(OC)n1)C2", "note": "(stereo not shown) [Compound 325, 2-amino-4-ethyl-7-[4-fluoro-2-(6-methoxy-pyrazin-2-yl)-phenyl]-7,8-dihydro-6H-quinazolin-5-one]", "IC50": "< 1000"},
      {"smiles": "Cc1nc(N)nc2c1C(=O)CC(c1ccc(F)cc1OC(C)C)C2", "note": "(stereo not shown) [Compound 176, 2-amino-7-(4-fluoro-2-isopropoxy-phenyl)-4-methyl-7,8-dihydro-6H-quinazolin-5-one]", "IC50": "< 1000"},
      {"smiles": "Cc1nc(N)nc2c1C(=O)CC(c1cnccc1-c1cccc(Br)c1)C2", "note": "(stereo not shown) [Compound 187, 2-amino-7-[4-(3-bromo-phenyl)-pyridin-3-yl]-4-methyl-7,8-dihydro-6H-quinazolin-5-one]", "IC50": "< 1000"},
      {"smiles": "Cc1nc(N)nc2c1C(=O)CC(c1cc(F)ccc1Br)C2", "note": "(stereo not shown) [Compound 238, 2-amino-7-(2-bromo-5-fluoro-phenyl)-4-methyl-7,8-dihydro-6H-quinazolin-5-one]", "IC50": "1000 to 10000"},
      {"smiles": "COc1ncc(-c2cc(F)ccc2C2CC(=O)c3c(C)nc(N)nc3C2)nc1OC", "note": "(stereo not shown) [Compound 322, 2-amino-7-[2-(5,6-dimethoxy-pyrazin-2-yl)-4-fluoro-phenyl]-4-methyl-7,8-dihydro-6H-quinazolin-5-one]", "IC50": "< 1000"},
      {"smiles": "Cc1nc(N)nc2c1C(=O)CC(c1ncsc1-c1ccccc1F)C2", "note": "(stereo not shown) [Compound 302, 2-amino-7-[5-(2-fluoro-phenyl)-thiazol-4-yl]-4-methyl-7,8-dihydro-6H-quinazolin-5-one]", "IC50": "< 1000"},
      {"smiles": "COc1ccccc1Oc1cc(F)ccc1C1CC(=O)c2c(C)nc(N)nc2C1", "note": "(stereo not shown) [Compound 290, 2-amino-7-[4-fluoro-2-(2-methoxy-phenoxy)-phenyl]-4-methyl-7,8-dihydro-6H-quinazolin-5-one]", "IC50": "1000 to 10000"},
      {"smiles": "COc1ccc(F)c(-c2cc(F)ccc2C2CC(=O)c3c(C)nc(N)nc3C2)c1", "note": "(stereo not shown) [Compound 186, 2-amino-7-(5,2′-difluoro-5′-methoxy-biphenyl-2-yl)-4-methyl-7,8-dihydro-6H-quinazolin-5-one]", "IC50": "< 1000"},
      {"smiles": "CCc1cccc(-c2cc(F)ccc2C2CC(=O)c3c(C)nc(N)nc3C2)n1", "note": "(stereo not shown) [Compound 183, 2-amino-7-[2-(6-ethyl-pyridin-2-yl)-4-fluoro-phenyl]-4-methyl-7,8-dihydro-6H-quinazolin-5-one]", "IC50": "< 1000"},
      {"smiles": "Cc1nc(N)nc2c1C(=O)CC(c1ncsc1-c1cccc(F)n1)C2", "note": "(stereo not shown) [Compound 294, 2-amino-7-[5-(6-fluoro-pyridin-2-yl)-thiazol-4-yl]-4-methyl-7,8-dihydro-6H-quinazolin-5-one]", "IC50": "< 1000"},
      {"smiles": "COc1cccc(-c2cc(F)c(C3CC(=O)c4c(C)nc(N)nc4C3)c(F)c2)n1", "note": "(stereo not shown) [Compound 256, 2-amino-7-[2,6-difluoro-4-(6-methoxy-pyridin-2-yl)-phenyl]-4-methyl-7,8-dihydro-6H-quinazolin-5-one]", "IC50": "> 10000"},
      {"smiles": "Cc1nc(N)nc2c1C(=O)CC(c1ccc(F)cc1OC1CCCC1)C2", "note": "(stereo not shown) [Compound 181, 2-amino-7-(2-cyclopentyloxy-4-fluoro-phenyl)-4-methyl-7,8-dihydro-6H-quinazolin-5-one]", "IC50": "< 1000"}
    ]}
  ]
}
